Columns and labels:
MCF-7/Adr cells = test: Microarray gene expression analysis; format: cell-based, human; details: decitabine vs untreated MCF-7/Adr
Procedure: Microarray analysis was performed using the standard protocol provided by IlluminaCorporation (San Diego, Calif.). […] 20 μL of nuclease free water containing total RNA at the concentration of 100 ng/μL was stored at −80° C. Approximately […] of total RNA was subjected to gene expression array study using Illuminahuman 6v2 chip. The array-hybridization and scanning of array images were performed at the Cleveland Clinic Genomics Core. The microarray scanned image and intensity files were imported into Illumina Bead Studio Analysis software version 3.2.6 (Illumina Inc.). Error models were applied and ratios were built for each treatment array versus its respective vehicle control. For qPCR analysis, RNA isolated from treated and untreated cells were converted into cDNA using Mo-MLV reverse transcriptase (Promega Inc., USA) according to manufacturers' instructions. Taqman expression primers (Applied Biosystems Inc., USA) and ABI PRISM Sequence Detection Instrument 7700 (Applied Biosystems Inc., USA) were used for real-time reverse transcription-PCR (RT-PCR). Fold change in target genes was calculated about the human glyceraldehyde 3-phosphate dehydrogenase (GAPDH).

[1] = DAC stability in liver extract; format: in vitro ADME; details: 15% w/v liver extract of athymic nude mice
Procedure: Freshly prepared DAC solution (50 μg/mL) or DAC loaded nanogel (equivalent drug concentration) was added in cell culture media (DMEM supplemented with 15% FBS and 1% penicillin-streptomycin), and incubated in cell culture incubator at 37° C. in a 5% CO2. Samples were incubated as 2 mL aliquots at 37° C., collected at various time points and lyophilized for 48 h at −48° C., 3.5 Pa, using FreeZone 4.5 (Labconco Corp., Kansas City, Mo.). DAC was extracted from lyophilized samples by adding 3 mL of methanol and kept on an orbital rotating shaker at 100 rpm in cold room overnight. 1 mL of methanolic extract was centrifuged at 14,000 rpm for 15 min at 4° C.; supernatant was collected and analyzed by HPLC. Identical protocol was followed for analyzing the stability of DAC in Mili Q water containing 15% heat inactivated or normal serum. Stability of DAC was also analyzed in 15% w/v liver extract of athymic nude mice using the indicated protocol.

MDA-MB 231 cells = test: Physical characterization of exosomes from DAC treated cells; format: cell-based, human; details: exosomes from cells treated with DAC 0.5 μM, 24 h
Procedure: Exosome isolation protocol: MDA-MB 231 cells were grown in DMEM supplemented with 10% fetal bovine serum (FBS), and 1% antibiotics. Prior to use in cell culture; the cell culture medium was depleted of endogenous exosomes present in FBS. Exosomes depleted media were prepared by 16 h of ultracentrifugation of cell culture medium supplemented with 50% FBS at 100, 000×g and filtered through 0.2 μm filter. Through out this process sterile conditions were maintained.
To isolate the exosomes from cells treated with DAC, cells were cultured in 10 cell culture dishes (150×25 mm), When the cells were at 70% confluency, the cells were washed with 1×PBS, re-fed with endogenous exosomes depleted media containing DAC (0.5 μM) and incubated for 24 h. Because of small production of exosomes from cultured cells, culture media from all the DAC treated plates were pooled for exosome isolation. All the exosome isolation procedures were done at 4° C. Culture supernatants were first centrifuged at 300×g for 10 min to pellet the cells. To remove the dead cells, supernatant was centrifuged at 2,000×g for 15 min (Sorvall Legend RTcentrifuge, Thermo Electron Corp. Waltham, Mass.). Supernatant was pipetted off and transferred to pre-cooled polycarbonate tubes appropriate for 50.1Ti fixed angle ultracentrifugation rotor (Beckman Coulter Inc., Fullerton, Calif., USA) and centrifuged at 10,000×g for 30 min to remove cell debris. Pellet was discarded and supernatant was aliquoted to several ultracentrifuge tubes and centrifuged at 110,000×g for 70 min to pellet exosomes. Supernatant was discarded. The pellet in each tube was re-suspended in 1 mL PBS and pooled in to single ultracentrifuge tube and centrifuged at 110,000×g for 70 min. […]
Five micro-liter of PFA fixed exosome suspension was dropped on 200 mesh formvar—carbon coated EM grid (grid size: 97 μm) (TEDPELLA, Redding, Calif., USA) and exosomes were allowed to adsorb to the grids by drying the suspension at room temperature for 20-30 min. […] From TEM images sizes of exosomes were measured using Image J software.

Nc1ncn([C@H]2C[C@H](O)[C@@H](CO)O2)c(=O)n1 [DAC, 5-aza-2′-deoxycytidine]
Fold Change 48 h (MCF-7/Adr cells; gene CDKN1A (p21, Cip1)): 3.6 fold
Fold Change 48 h (MCF-7/Adr cells; gene CST6): 52.8 fold
Fold Change 48 h (MCF-7/Adr cells; gene DPEP3): −87.8 fold
Fold Change 48 h (MCF-7/Adr cells; gene DPPA2): −11.2 fold
Fold Change 48 h (MCF-7/Adr cells; gene GAGE2): 1754.4 fold
Fold Change 48 h (MCF-7/Adr cells; gene GAGE5): 1358.9 fold
Fold Change 48 h (MCF-7/Adr cells; gene GAGE6): 813.8 fold
Fold Change 48 h (MCF-7/Adr cells; gene GAGE7B): 907.8 fold
Fold Change 48 h (MCF-7/Adr cells; gene GAGE8): 411.0 fold
Fold Change 48 h (MCF-7/Adr cells; gene IL23A (p19)): 3.02 fold
Fold Change 48 h (MCF-7/Adr cells; gene MAGEA4): 4.7 fold
Fold Change 48 h (MCF-7/Adr cells; gene MMP9): −215.1 fold
Fold Change 48 h (MCF-7/Adr cells; gene PAGE 4): 11.6 fold
Fold Change 48 h (MCF-7/Adr cells; gene PAGE5): 25.4 fold
Fold Change 48 h (MCF-7/Adr cells; gene PAK3): 2.7 fold
Fold Change 48 h (MCF-7/Adr cells; gene PNMA5): −19.8 fold
Fold Change 48 h (MCF-7/Adr cells; gene PYCARD): 23.6 fold
Fold Change 48 h (MCF-7/Adr cells; gene RASD1): 35.6 fold
Fold Change 48 h (MCF-7/Adr cells; gene SOCSI): 28.2 fold
Fold Change 48 h (MCF-7/Adr cells; gene SOX15): 10.2 fold
Fold Change 48 h (MCF-7/Adr cells; gene STK31): 1663.3 fold
Fold Change 48 h (MCF-7/Adr cells; gene TFF2): −16.8 fold
Fold Change 48 h (MCF-7/Adr cells; gene THY1): 103.1 fold
Fold Change 48 h (MCF-7/Adr cells; gene TMEM101): 33.7 fold
Fold Change 48 h (MCF-7/Adr cells; gene ZFP42): −22.5 fold
Complete degradation of DAC, time post incubation [1]: 60 min
Hydrodynamic diameter of exosomes (MDA-MB 231 cells): 495 nm
PI of exosomes (MDA-MB 231 cells): 0.61
Exosome size by transmission electron micrograph (MDA-MB 231 cells; in nm (unit assumed)): 97.2±8.0
